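Values below derive from 48-hour exposures of cells grown in 96-well plates, with endpoints linearly interpolated between the two concentrations bracketing the appropriate inhibition level. At the TGI there is no net growth.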
Columns and labels:
Assay in all cases: growth of human tumour cells (NCI), 48 h
M14 melanoma = tested on: M14 melanoma
CAKI-1 renal = tested on: CAKI-1 renal
SNB-19 CNS = tested on: SNB-19 CNS
786-0 renal = tested on: 786-0 renal
SN12C renal = tested on: SN12C renal
SK-OV-3 ovarian = tested on: SK-OV-3 ovarian
LOX IMVI melanoma = tested on: LOX IMVI melanoma
SW-620 colon = tested on: SW-620 colon
SNB-78 CNS = tested on: SNB-78 CNS
NCI-H226 lung = tested on: NCI-H226 lung
CCRF-CEM leukemia = tested on: CCRF-CEM leukemia
HT29 colon = tested on: HT29 colon
NCI-H460 lung = tested on: NCI-H460 lung
MALME-3M melanoma = tested on: MALME-3M melanoma
RXF-631 renal = tested on: RXF-631 renal
MOLT-4 leukemia = tested on: MOLT-4 leukemia
EKVX NSCLC = tested on: EKVX NSCLC
HCT-116 colon = tested on: HCT-116 colon
SK-MEL-5 melanoma = tested on: SK-MEL-5 melanoma
IGROV1 ovarian = tested on: IGROV1 ovarian
HCT-15 colon = tested on: HCT-15 colon
DMS 273 small cell lung = tested on: DMS 273 small cell lung
UACC-62 melanoma = tested on: UACC-62 melanoma
LXFL 529 NSCLC = tested on: LXFL 529 NSCLC
TK-10 renal = tested on: TK-10 renal
COLO 205 colon = tested on: COLO 205 colon
M19-MEL melanoma = tested on: M19-MEL melanoma
OVCAR-3 ovarian = tested on: OVCAR-3 ovarian
HL-60(TB) leukemia = tested on: HL-60(TB) leukemia
SF-268 CNS = tested on: SF-268 CNS
OVCAR-4 ovarian = tested on: OVCAR-4 ovarian
NCI-H522 lung = tested on: NCI-H522 lung
UO-31 renal = tested on: UO-31 renal
NCI-H23 lung = tested on: NCI-H23 lung
SR leukemia = tested on: SR leukemia
OVCAR-8 ovarian = tested on: OVCAR-8 ovarian
HCC-2998 colon = tested on: HCC-2998 colon
ACHN renal = tested on: ACHN renal
OVCAR-5 ovarian = tested on: OVCAR-5 ovarian
SF-539 CNS = tested on: SF-539 CNS
HOP-18 NSCLC = tested on: HOP-18 NSCLC
K-562 leukemia = tested on: K-562 leukemia
A549 NSCLC = tested on: A549 NSCLC
A498 renal = tested on: A498 renal
U251 CNS = tested on: U251 CNS
SF-295 CNS = tested on: SF-295 CNS
HOP-62 NSCLC = tested on: HOP-62 NSCLC
KM12 colon = tested on: KM12 colon
DMS 114 small cell lung = tested on: DMS 114 small cell lung
UACC-257 melanoma = tested on: UACC-257 melanoma
HOP-92 NSCLC = tested on: HOP-92 NSCLC
SK-MEL-28 melanoma = tested on: SK-MEL-28 melanoma
RPMI-8226 leukemia = tested on: RPMI-8226 leukemia
DLD-1 colon = tested on: DLD-1 colon
XF 498 CNS = tested on: XF 498 CNS
SK-MEL-2 melanoma = tested on: SK-MEL-2 melanoma
SNB-75 CNS = tested on: SNB-75 CNS
KM20L2 colon = tested on: KM20L2 colon
RXF 393 renal = tested on: RXF 393 renal

Cn1ncc2c(Nc3ccc(Cl)cc3)c3ccccc3nc21
TGI (M14 melanoma): 28.3 µM
TGI (CAKI-1 renal): 80.6 µM
TGI (SNB-19 CNS): 43.9 µM
TGI (786-0 renal): 32.4 µM
TGI (SN12C renal): 58.3 µM
TGI (SK-OV-3 ovarian): 54.9 µM
TGI (LOX IMVI melanoma): 32.7 µM
TGI (SW-620 colon): 39.1 µM
TGI (SNB-78 CNS): 74.6 µM
TGI (NCI-H226 lung): 35.4 µM
TGI (CCRF-CEM leukemia): 56.7 µM
TGI (HT29 colon): 27.1 µM
TGI (NCI-H460 lung): 52.7 µM
TGI (MALME-3M melanoma): 39.7 µM
TGI (RXF-631 renal): 33.5 µM
TGI (MOLT-4 leukemia): 63.2 µM
TGI (EKVX NSCLC): > 10 µM
TGI (HCT-116 colon): 26.4 µM
TGI (SK-MEL-5 melanoma): 26.7 µM
TGI (IGROV1 ovarian): 54.7 µM
TGI (HCT-15 colon): 40 µM
TGI (DMS 273 small cell lung): 35.5 µM
TGI (UACC-62 melanoma): 31.6 µM
TGI (LXFL 529 NSCLC): 34.7 µM
TGI (TK-10 renal): 77.3 µM
TGI (COLO 205 colon): 42.4 µM
TGI (M19-MEL melanoma): 37.2 µM
TGI (OVCAR-3 ovarian): 46.2 µM
TGI (HL-60(TB) leukemia): 73.6 µM
TGI (SF-268 CNS): 51.5 µM
TGI (OVCAR-4 ovarian): 29.2 µM
TGI (NCI-H522 lung): 37.2 µM
TGI (UO-31 renal): > 10 µM
TGI (NCI-H23 lung): > 10 µM
TGI (SR leukemia): > 100 µM
TGI (OVCAR-8 ovarian): 30.3 µM
TGI (HCC-2998 colon): 39.7 µM
TGI (ACHN renal): 55.9 µM
TGI (OVCAR-5 ovarian): 47.5 µM
TGI (SF-539 CNS): 30.1 µM
TGI (HOP-18 NSCLC): 69.5 µM
TGI (K-562 leukemia): 56.7 µM
TGI (A549 NSCLC): 43.2 µM
TGI (A498 renal): 29.7 µM
TGI (U251 CNS): 29.3 µM
TGI (SF-295 CNS): 36 µM
TGI (HOP-62 NSCLC): 31.9 µM
TGI (KM12 colon): 40.9 µM
TGI (DMS 114 small cell lung): 34.5 µM
TGI (UACC-257 melanoma): 31.7 µM
TGI (HOP-92 NSCLC): 39.1 µM
TGI (SK-MEL-28 melanoma): 29.7 µM
TGI (RPMI-8226 leukemia): 93.9 µM
TGI (DLD-1 colon): 30.3 µM
TGI (XF 498 CNS): > 10 µM
TGI (SK-MEL-2 melanoma): 33.7 µM
TGI (SNB-75 CNS): 29.2 µM

O=[N+]([O-])c1ccc(-c2noc(-c3ccccc3)c2C2=NCCN2)cc1
TGI (M14 melanoma): > 100 µM
TGI (CAKI-1 renal): > 100 µM
TGI (SNB-19 CNS): > 100 µM
TGI (786-0 renal): > 100 µM
TGI (SN12C renal): > 100 µM
TGI (LOX IMVI melanoma): > 100 µM
TGI (SW-620 colon): > 100 µM
TGI (SNB-78 CNS): > 100 µM
TGI (NCI-H226 lung): > 100 µM
TGI (CCRF-CEM leukemia): > 100 µM
TGI (HT29 colon): > 100 µM
TGI (NCI-H460 lung): > 100 µM
TGI (MALME-3M melanoma): > 100 µM
TGI (RXF-631 renal): > 100 µM
TGI (MOLT-4 leukemia): > 100 µM
TGI (EKVX NSCLC): > 100 µM
TGI (HCT-116 colon): > 100 µM
TGI (SK-MEL-5 melanoma): > 100 µM
TGI (IGROV1 ovarian): > 100 µM
TGI (HCT-15 colon): > 100 µM
TGI (UACC-62 melanoma): > 100 µM
TGI (LXFL 529 NSCLC): > 100 µM
TGI (COLO 205 colon): > 100 µM
TGI (M19-MEL melanoma): > 100 µM
TGI (OVCAR-3 ovarian): 90.8 µM
TGI (HL-60(TB) leukemia): > 100 µM
TGI (SF-268 CNS): > 100 µM
TGI (OVCAR-4 ovarian): > 100 µM
TGI (NCI-H522 lung): > 100 µM
TGI (UO-31 renal): > 100 µM
TGI (SR leukemia): > 100 µM
TGI (OVCAR-8 ovarian): > 100 µM
TGI (HCC-2998 colon): > 100 µM
TGI (ACHN renal): > 100 µM
TGI (OVCAR-5 ovarian): > 100 µM
TGI (SF-539 CNS): > 100 µM
TGI (HOP-18 NSCLC): > 100 µM
TGI (K-562 leukemia): > 100 µM
TGI (A549 NSCLC): > 100 µM
TGI (U251 CNS): > 100 µM
TGI (SF-295 CNS): > 100 µM
TGI (KM20L2 colon): > 100 µM
TGI (HOP-62 NSCLC): > 100 µM
TGI (KM12 colon): > 100 µM
TGI (UACC-257 melanoma): > 100 µM
TGI (SK-MEL-28 melanoma): > 100 µM
TGI (RPMI-8226 leukemia): > 100 µM
TGI (DLD-1 colon): > 100 µM
TGI (XF 498 CNS): > 100 µM
TGI (SK-MEL-2 melanoma): > 100 µM
TGI (RXF 393 renal): > 100 µM
TGI (SNB-75 CNS): > 100 µM

CC(=O)OCC1(C)C(OC(C)=O)CCC2(C)C(CC(OC(C)=O)C3=CCOC3=O)C(O)(CO)CCC12 (stereo not drawn)
TGI (M14 melanoma): > 100 µM
TGI (CAKI-1 renal): > 100 µM
TGI (SNB-19 CNS): > 100 µM
TGI (786-0 renal): > 100 µM
TGI (SN12C renal): > 100 µM
TGI (SK-OV-3 ovarian): > 100 µM
TGI (LOX IMVI melanoma): > 100 µM
TGI (SW-620 colon): > 100 µM
TGI (SNB-78 CNS): > 100 µM
TGI (NCI-H226 lung): > 100 µM
TGI (CCRF-CEM leukemia): > 100 µM
TGI (HT29 colon): > 100 µM
TGI (NCI-H460 lung): > 100 µM
TGI (MALME-3M melanoma): > 100 µM
TGI (RXF-631 renal): > 100 µM
TGI (EKVX NSCLC): > 100 µM
TGI (HCT-116 colon): > 100 µM
TGI (SK-MEL-5 melanoma): > 100 µM
TGI (IGROV1 ovarian): > 100 µM
TGI (DMS 273 small cell lung): > 100 µM
TGI (UACC-62 melanoma): > 100 µM
TGI (LXFL 529 NSCLC): > 100 µM
TGI (TK-10 renal): > 100 µM
TGI (COLO 205 colon): > 100 µM
TGI (M19-MEL melanoma): > 100 µM
TGI (OVCAR-3 ovarian): > 100 µM
TGI (HL-60(TB) leukemia): > 100 µM
TGI (SF-268 CNS): > 100 µM
TGI (OVCAR-4 ovarian): > 100 µM
TGI (NCI-H522 lung): > 100 µM
TGI (UO-31 renal): > 100 µM
TGI (NCI-H23 lung): > 100 µM
TGI (OVCAR-8 ovarian): > 100 µM
TGI (HCC-2998 colon): > 100 µM
TGI (ACHN renal): > 100 µM
TGI (OVCAR-5 ovarian): > 100 µM
TGI (SF-539 CNS): > 100 µM
TGI (HOP-18 NSCLC): > 100 µM
TGI (K-562 leukemia): > 100 µM
TGI (A549 NSCLC): > 100 µM
TGI (A498 renal): > 100 µM
TGI (U251 CNS): > 100 µM
TGI (SF-295 CNS): > 100 µM
TGI (KM20L2 colon): > 100 µM
TGI (HOP-62 NSCLC): > 100 µM
TGI (KM12 colon): > 100 µM
TGI (UACC-257 melanoma): > 100 µM
TGI (HOP-92 NSCLC): > 100 µM
TGI (SK-MEL-28 melanoma): > 100 µM
TGI (RPMI-8226 leukemia): > 100 µM
TGI (DLD-1 colon): > 100 µM
TGI (XF 498 CNS): > 100 µM
TGI (RXF 393 renal): > 100 µM
TGI (SNB-75 CNS): > 100 µM

— PubChem BioAssay (NCI)
